In brackets after ≈: the same amount, converted by molar mass.
Assays:
[1] = test system: bacteria in saliva of healthy volunteers; test: Inhibition of bacterial growth in the saliva in vivo (Example V); settings: in theory, 0.1 ml saliva
Method: Five healthy adult volunteers, three men and two women, were asked to refrain from drinking or eating for two hours after breakfast. At the end of two hours, an aliquot of 0.1 ml of saliva was pipetted from the mouth of each volunteer and spread over the surface of a sheep blood agar plate with a sterile plastic loop. The inoculated blood agar plate was incubated in an aerobic atmosphere containing 5% CO2 as pre-medication control. Then 100 mg, 50 mg, 20 mg, 10 mg and 2 mg of penicillin G potassium dry powder, USP grade, were placed in the right buccal pouch with a spatula between the cheek and the lower gum of each volunteer, respectively. The volunteers were asked to retain the dissolved penicillin powder at the site of medication as concentrated as possible, not to be diluted by saliva from other parts of the mouth for one hour.
At the end of one hour, 0.1 ml of saliva from each volunteer was pipetted from the right buccal pouch where the medication was placed, and inoculated and spread onto the surface of a sheep blood agar plate. The inoculum was spread with a sterile plastic loop.

bacteria in human saliva = test: Inhibition of bacterial growth in human saliva in vitro (Example IV); format: cell-based
Method: For this study, five healthy adult volunteers, three men and two women, were asked to refrain from drinking and eating for two hours after breakfast. At the end of two hours, about five (5) ml of saliva was obtained from the oral cavity of each volunteer. Aliquots of 0.1 ml of saliva were pipetted immediately from each saliva sample and spread over the surface of two 5% sheep blood agar plates with a sterile plastic loop. One inoculated blood agar plate was incubated in an aerobic atmosphere containing 5% CO2, and the other anaerobically at 37° C. for 18 hours, as untreated controls.
Aliquots of 0.2 ml of the saliva from each volunteer's sample were pipetted into sterile test tubes, and labeled from No. 2 to No. 13. Five equal doses of dry powder of the USP grade penicillin G potassium salt, 200 mg each, were weighed and put into five sterile test tubes, all labeled No. 1. The dry powder of antibiotic was dissolved in 0.4 ml saliva obtained from each of the five volunteers to constitute an initial concentration of antibiotic concentration of […] in saliva. An aliquot of 0.2 ml of the saliva antibiotic solution was pipetted from tube No. 1 into tube No. 2. After having been thoroughly mixed, 0.2 ml of the content in tube No. 2 was pipetted to tube No. 3, and so forth continuously in succession to make a serial double dilution of penicillin G potassium solutions in saliva through tube No. 13. Finally, the test tubes contained different concentrations of penicillin G potassium in the saliva of five volunteers, as follows.
The mixtures of antibiotic and saliva in the test tubes were incubated at 37° C. One hour later, an aliquot of 0.1 ml was pipetted from the content of each tube, first dropped in the center of a blood agar plate and then spread to the periphery of the plate surface. The plates were incubated aerobically at 37° C. with 5% carbon dioxide in the atmosphere for 18 hours and were examined for bacterial growth.

[2] = test system: Staphylococcus aureus (ATCC 29213); test: MIC for standard strain used in saliva antibiotic assay (Examples I, II); format: cell-based; settings: nutrient broth, 37° C., 18 hours
From the text: The final concentrations of oxytetracycline in the control standard nutrient broth were 0.25 mcg/ml, 0.5 mcg/ml, 1.0 mcg/ml, 2.0 mcg/ml, 4.0 mcg/ml, and 8.0 mcg/ml. The final dilutions of saliva sample were 1/50,000, 1/100,000, 1/200,000, 1/400,000, 1/800,000 and 1/1,600,000 for the peak concentration test tubes and 1/4,000. 1/8,000, 1/16,000 and 1/32,000 for the trough concentration test tubes. The Staphylococcus aureus (ATCC 29213) was also used as the standard test microorganism.

[3] = test system: Gram-negative bacilli (Salmonella, Shigella, most Escherichia coli strains, all Proteus mirabilis strains and most Bacteroides strains); settings: in vitro; cited from earlier work
[4] = intravenous injection of 500 mg penicillin G; cited from earlier work
[5] = test system: Staphylococcus aureus (ATCC 29213); settings: standard strain; cited from earlier work
[6] = earlier treatments of oral infections / aphthous ulcers; cited from earlier work
[7] = test system: Staphylococcus aureus ATCC 29213; test: MIC for standard strain used in saliva antibiotic assay (Examples VII-IX); format: cell-based; settings: nutrient broth, 37° C., 18 hours
Method: Each filtered mixture in test tube was inoculated with 0.1 ml of a 1:1,000 dilution of a 12 hour broth culture of Staphylococcus aureus ATCC 29213.
A row of 6 test tubes each containing 2 ml of nutrient broth with decreasing concentrations of penicillin G potassium from 6.2 to 0.16 mcg/ml, using a serial double dilution method described in a., was prepared and similarly inoculated with 0.1 ml broth culture of Staphylococcus aureus ATCC 29213 as the standard.
All test tubes were incubated at 37° C. for 18 hours and observed for bacterial growth against an inoculated broth containing neither antibiotic nor saliva samples.
In this study, the drug powder was suspended in one teaspoonful of water and swallowed by the test subjects two hours after breakfast, followed by drinking an 8 Oz. glass of water. The test subjects refrained from drinking or eating for the next three hours. Six samples of saliva were collected from each subject at 30-minute intervals in succession in the next three hours. An aliquot of 0.2 ml from each saliva sample was transferred to 3.8 ml of nutrient broth. The mixture of the latter was forced to pass a bacterial filter. Two (2) ml of the bacteria-free filtrate was pipetted out into a sterile test tube and inoculated with 0.1 ml of a 1:1,000 dilution of a 12 hours broth culture of Staphylococcus aureus ATCC 29213 and incubated at 37° C. for 18 hours. […]

[8] = Topical treatment of patients with aphthous ulcers with troches; format: in vivo, human
Method: Patients with aphthous ulcers were advised to brush their teeth to rid them of food residues, and to rinse their mouths with water prior to initiating treatment. One penicillin/magnesium stearate troche was placed in the patients mouths directly over the ulcerated lesion. The troche was dissolved or disintegrated in a minimum amount of saliva directly over the ulcer in no more than 15 minutes, preferably in about 8 to about 12 minutes. The patients were advised to keep the ingredients of the disintegrated troche at the site of the lesion as long as possible. Food and beverages were avoided for one hour after each treatment. If multiple aphthous ulcers were present, only one troche is required for the treatment of a cluster of small ulcers. The topical treatments were conducted 4 times daily, for example, after breakfast, after lunch, after dinner and before bed time for no more than 4 days. […] The burning sensation lessened with subsequent applications.
For instance, the first sign of healing is usually the fading of the hyperemic zone at the periphery of the ulcer and the lessening of edema at the base of the ulcer. The membrane covering the ulcer becomes thinner, more translucent, more pearly white instead of a grayish-yellowish white prior to the application and contract with the troche. […]

[9] = Local concentration of penicillin in saliva after a troche containing 50 mg penicillin G; format: in vivo, human
Method: The local concentration of penicillin in the saliva was determined as follows. […] This loculated pocket of saliva was not swallowed and was not to be diluted with excess saliva from other parts of the mouth for one hour. Two samples were taken for assay to determine the peak and trough local concentrations of penicillin during the one-hour duration of medicinal treatment. At the time when the troche was completely dissolved and one hour later, aliquots of 10 microliters were pipetted from this pocket of saliva solution at the site of medication, representing the peak level and the trough level of antibiotic concentration, and transferred into 10 ml of distilled water to make a 1:1.000 dilution and into 1 ml of distilled water to make a 1:100 dilution, respectively. The diluted saliva antibiotic solutions were passed through a sterile bacteria-filter to remove any bacterial or fungal contaminants of the oral flora.
For determination of the peak concentration, 1 ml of the bacteria-free filtrate was further diluted with 9 ml of nutrient broth to achieve a 1:10,000 dilution of the saliva. Then a serial two-fold dilution was made of this 1:10,000 diluted saliva sample with an equal volume of nutrient broth in a roll of test tubes to obtain a series of 1 ml aliquots of nutrient broth in which the saliva was diluted to 20,000, 40,000, 80,000, 160,000, 320,000, 640,000, 1,280,000 and 2,560,000 folds respectively. […] Thus the final dilutions of the saliva sample were in the range of 40,000 to 5,120,000 folds.
For determining the trough concentration, the entire 1 ml of the 1:100 diluted saliva filtrate was used to make the serial dilutions so that the final dilutions of saliva sample were in the range of 4,000 to 256,000 folds in the final test culture.
As control standards, a series of test tubes containing 1 ml of nutrient broth with varying concentrations of penicillin G potassium salt ranging from 0.1 units to 10 units/ml were similarly mixed with an equal volume of nutrient broth freshly inoculated with the standard tubes of Staphylococcus aureus. Both the test and control standard tubes were incubated at 37° C. for 18 hours. Among the test tubes showing no gross evidence of bacterial growth, the one containing the highest dilution of saliva and the one containing the least amount of penicillin G were considered as having the identical concentration of penicillin, i.e. the MIC of the staphylococcus aureus.

Row | Structure (SMILES) | theoretical dose sufficient for initial topical MIC concentration of 2 mg/ml [1] | bactericidal effect (bacteria in human saliva; 1 mg/ml, one hour's incubation) | MIC (bacteria in human saliva; Homo sapiens, read-out: MIC / concentration inhibiting growth of oral flora in saliva) | MIC [2] | cut-off minimum inhibition concentration at which many Gram-negative bacilli fall into sensitive category [3] | average peak blood level [4] | known minimum inhibitory concentration (MIC) [5] | effectiveness of treatment [6] | MIC / concentration inhibiting growth of oral flora in saliva (bacteria in human saliva; in vitro, aerobic) | concentration at which bacteria grew to full turbidity [7] | adverse reactions ([8]; 4 days of penicillin medication) | state of ulcer membrane ([8]; after 4 days of penicillin medication) | initial concentration at the ulcer ([9]; assuming troche is dissolved in 0.1 ml of saliva) | local trough concentration in saliva ([9]; human, in vivo, 60 min) | concentration at 1 h ([9]; human, saliva, 50 mg, 50 mg troche, end of one hour, read-out: local trough concentration in saliva)
1 | CC1(C)S[C@@H]2[C@H](NC(=O)Cc3ccccc3)C(=O)N2[C@H]1C(=O)O [penicillin G] | 0.2 mg | not "bactericidal" within one hour's incubation time | 2000 µg/mL (≈ 5.98 mM) | 1 unit/ml | ≤ 740 µg/mL | 16 mcg/ml and about 16 mcg/ml and about 26 units/mi |  |  |  |  |  |  |  |  | 
2 | CC1(C)S[C@@H]2[C@H](NC(=O)Cc3ccccc3)C(=O)N2[C@H]1C(=O)O [penicillin] |  |  |  |  |  |  | 0.25-2 units/mi | ineffective | 2000 µg/mL | ≤ 0.37 µg/mL | no observed adverse reactions of stomatitis or discoloration of the tongue | only remnants of a thin pearly whitish membrane remain, if any | up to 500 mg/ml | about 12,000 Units per 1 ml saliva | ~7500 µg/mL

— patent US6248718A, “Lesion-directed dry dosage forms of antibacterial agents for the treatment of acute mucosal infections of the oral cavity” (priority 1999, dated 2001)
